# Assays:
# Type in all cases: in vivo
# [1] = tested on: blackgrass (Alopecurus myosuroides); test: Test A preemergence, blackgrass; settings: 0 to 100 scale, 10 days
# Description: (§1) Seeds of plant species selected from barnyardgrass (Echinochloa crus-galli), blackgrass (Alopecurus myosuroides), corn (Zea mays), foxtail, giant (giant foxtail, Setaria faberi), foxtail, green (green foxtail, Setaria viridis), goosegrass (Eleusine indica), kochia (Bassia scoparia), oat, wild (wild oat, Avena fatua), palmer amaranth (pigweed, palmer, Amaranthus palmeri), redroot pigweed (Amaranthus retroflexus), ragweed (common ragweed, Ambrosia artemisiifolia), ryegrass, Italian (Italian ryegrass, Lolium multiflorum), and soybean (Glycine max) were planted into a blend of loam soil and sand and treated preemergence with a directed soil spray using test chemicals formulated in a non-phytotoxic solvent mixture which included a surfactant.
# (§2) At the same time, plants selected from these crop and weed species and also wheat (Triticum aestivum), galium (catchweed bedstraw, Galium aparine) and horseweed (Erigeron canadensis) were planted in pots containing the same blend of loam soil and sand and treated with postemergence applications of test chemicals formulated in the same manner. Plants ranged in height from 2 to 10 cm and were in the one- to two-leaf stage for the postemergence treatment. Treated plants and untreated controls were maintained in a greenhouse for 10 days, after which time all treated plants were compared to untreated controls and visually evaluated for injury. Plant response ratings, summarized in Table A, are based on a 0 to 100 scale where 0 is no effect and 100 is complete control. A dash (-) response means no test result.
# corn (Zea mays) [2] = test: Test A preemergence, corn; settings: 0 to 100 scale, 10 days
# Description: as §1, §2
# [3] = tested on: foxtail, giant (giant foxtail, Setaria faberi); test: Test A preemergence, foxtail, giant; settings: 0 to 100 scale, 10 days
# Method in brief: (§3)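 Visual injury ratings on a 0 to 100 scale (0 no effect, 100 complete control) were made 10 days after treatment, relative to untreated controls. Test chemicals in a surfactant-containing non-phytotoxic solvent were applied to soil at planting or to one- to two-leaf plants 2 to 10 cm tall.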
# [4] = tested on: goosegrass (Eleusine indica); test: Test A preemergence, goosegrass; settings: 0 to 100 scale, 10 days
# Description: as §1, §2
# kochia (Bassia scoparia) [5] = test: Test A preemergence, kochia; settings: 0 to 100 scale, 10 days
# Method in brief: as §3
# [6] = tested on: oat, wild (wild oat, Avena fatua); test: Test A preemergence, oat, wild; settings: 0 to 100 scale, 10 days
# Description: as §1, §2
# [7] = tested on: palmer amaranth (pigweed, palmer, Amaranthus palmeri); test: Test A preemergence, palmer amaranth; settings: 0 to 100 scale, 10 days
# Description: as §1, §2
# [8] = tested on: ragweed (common ragweed, Ambrosia artemisiifolia); test: Test A preemergence, ragweed; settings: 0 to 100 scale, 10 days
# Method in brief: as §3
# [9] = tested on: ryegrass, Italian (Italian ryegrass, Lolium multiflorum); test: Test A preemergence, ryegrass, Italian; settings: 0 to 100 scale, 10 days
# Method in brief: as §3
# soybean (Glycine max) [10] = test: Test A preemergence, soybean; settings: 0 to 100 scale, 10 days
# Description: as §1, §2
# [11] = tested on: blackgrass (Alopecurus myosuroides); test: Test A postemergence, blackgrass; settings: 10 days
# Method in brief: as §3
# corn (Zea mays) [12] = test: Test A postemergence, corn; settings: 10 days
# Method in brief: as §3
# [13] = tested on: foxtail, giant (giant foxtail, Setaria faberi); test: Test A postemergence, foxtail, giant; settings: 10 days
# Method in brief: as §3
# [14] = tested on: goosegrass (Eleusine indica); test: Test A postemergence, goosegrass; settings: 10 days
# Description: as §1, §2
# kochia (Bassia scoparia) [15] = test: Test A postemergence, kochia; settings: 10 days
# Method in brief: as §3
# [16] = tested on: oat, wild (wild oat, Avena fatua); test: Test A postemergence, oat, wild; settings: 10 days
# Description: as §1, §2
# [17] = tested on: palmer amaranth (pigweed, palmer, Amaranthus palmeri); test: Test A postemergence, palmer amaranth; settings: 10 days
# Description: as §1, §2
# [18] = tested on: ragweed (common ragweed, Ambrosia artemisiifolia); test: Test A postemergence, ragweed; settings: 10 days
# Method in brief: as §3
# [19] = tested on: ryegrass, Italian (Italian ryegrass, Lolium multiflorum); test: Test A postemergence, ryegrass, Italian; settings: 10 days
# Method in brief: as §3
# soybean (Glycine max) [20] = test: Test A postemergence, soybean; settings: 10 days
# Description: as §1, §2
# [21] = tested on: wheat (Triticum aestivum); test: Test A postemergence, wheat; settings: 10 days
# Method in brief: as §3
# [22] = tested on: galium (catchweed bedstraw, Galium aparine); test: Test A postemergence, galium; settings: 10 days
# Method in brief: as §3
# [23] = tested on: horseweed (Erigeron canadensis); test: Test A postemergence, horseweed; settings: 10 days
# Description: as §1, §2
# [24] = tested on: barnyardgrass (Echinochloa crus-galli); test: Test B flooded paddy test, barnyardgrass; settings: 250 g ai/ha, Flood; visually evaluated after 10 to 14 days
# Method in brief: (§4)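 Plants grown to the 2-leaf stage were flooded to 3 cm above the soil, and test compounds were applied directly into the paddy water, which was held at that depth throughout. After 10 to 14 days in a greenhouse, injury was visually rated against controls on a 0–100 scale (0 no effect, 100 complete control).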
# [25] = tested on: ducksalad (Heteranthera limosa); test: Test B flooded paddy test, ducksalad; settings: 250 g ai/ha, Flood; visually evaluated after 10 to 14 days
# Method in brief: as §4
# rice (Oryza sativa) = test: Test B flooded paddy test, rice; settings: 250 g ai/ha, Flood; visually evaluated after 10 to 14 days
# Method in brief: as §4
# [26] = tested on: sedge, umbrella (small-flower umbrella sedge, Cyperus difformis); test: Test B flooded paddy test, sedge, umbrella; settings: 250 g ai/ha, Flood; visually evaluated after 10 to 14 days
# Method in brief: as §4
# [27] = tested on: wheat (Triticum aestivum); test: Test A preemergence, wheat; settings: 125 g ai/ha, 0 to 100 scale, 10 days
# [28] = 31 g ai/ha, postemergence, 0 to 100 scale (0 no effect, 100 complete control)
# [29] = Postemergence, 125 g ai/ha, 0 to 100 scale
compound,measurement,setting,value
Cc1cc(C)c2cc3ccccc3c(-c3c(OCOC(=O)C(C)(C)C)c(Cl)nn(C)c3=O)c2c1 [Compound 20],"Plant response rating, Blackgrass",[1]; 31 g ai/ha,0
same,"Plant response rating, Blackgrass",[1]; 125 g ai/ha,10
same,"Plant response rating, Corn",corn (Zea mays) [2]; 31 g ai/ha,0
same,"Plant response rating, Corn",corn (Zea mays) [2]; 125 g ai/ha,0
same,"Plant response rating, Foxtail, Giant",[3]; 31 g ai/ha,0
same,"Plant response rating, Foxtail, Giant",[3]; 125 g ai/ha,20
same,"Plant response rating, Goosegrass",[4]; 31 g ai/ha,0
same,"Plant response rating, Goosegrass",[4]; 125 g ai/ha,0
same,"Plant response rating, Kochia",kochia (Bassia scoparia) [5]; 31 g ai/ha,0
same,"Plant response rating, Kochia",kochia (Bassia scoparia) [5]; 125 g ai/ha,0
same,"Plant response rating, Oat, Wild",[6]; 31 g ai/ha,0
same,"Plant response rating, Oat, Wild",[6]; 125 g ai/ha,0
same,"Plant response rating, Pigweed, Palmer",[7]; 31 g ai/ha,30
same,"Plant response rating, Pigweed, Palmer",[7]; 125 g ai/ha,60
same,"Plant response rating, Ragweed",[8]; 31 g ai/ha,0
same,"Plant response rating, Ragweed",[8]; 125 g ai/ha,50
same,"Plant response rating, Ryegrass, Italian",[9]; 31 g ai/ha,0
same,"Plant response rating, Ryegrass, Italian",[9]; 125 g ai/ha,0
same,"Plant response rating, Soybean",soybean (Glycine max) [10]; 31 g ai/ha,0
same,"Plant response rating, Soybean",soybean (Glycine max) [10]; 125 g ai/ha,0
same,"Plant response rating, Blackgrass",[11]; [28],0
same,"Plant response rating, Blackgrass",[11]; [29],0
same,"Plant response rating, Corn",corn (Zea mays) [12]; [28],10
same,"Plant response rating, Corn",corn (Zea mays) [12]; [29],20
same,"Plant response rating, Foxtail, Giant",[13]; [28],20
same,"Plant response rating, Foxtail, Giant",[13]; [29],30
same,"Plant response rating, Goosegrass",[14]; [28],30
same,"Plant response rating, Goosegrass",[14]; [29],30
same,"Plant response rating, Kochia",kochia (Bassia scoparia) [15]; [28],40
same,"Plant response rating, Kochia",kochia (Bassia scoparia) [15]; [29],60
same,"Plant response rating, Oat, Wild",[16]; [28],0
same,"Plant response rating, Oat, Wild",[16]; [29],0
same,"Plant response rating, Pigweed, Palmer",[17]; [28],50
same,"Plant response rating, Pigweed, Palmer",[17]; [29],50
same,"Plant response rating, Ragweed",[18]; [28],70
same,"Plant response rating, Ragweed",[18]; [29],70
same,"Plant response rating, Ryegrass, Italian",[19]; [28],0
same,"Plant response rating, Ryegrass, Italian",[19]; [29],0
same,"Plant response rating, Soybean",soybean (Glycine max) [20]; [28],0
same,"Plant response rating, Soybean",soybean (Glycine max) [20]; [29],0
same,"Plant response rating, Wheat",[21]; [28],0
same,"Plant response rating, Wheat",[21]; [29],0
same,"Plant response rating, Galium",[22]; [28],50
same,"Plant response rating, Galium",[22]; [29],50
same,"Plant response rating, Horseweed",[23]; [28],90
same,"Plant response rating, Horseweed",[23]; [29],80
same,"Plant response rating, Barnyardgrass (0 to 100 scale where 0 is no effect and 100 is complete control)",[24],25
same,"Plant response rating, Ducksalad (0 to 100 scale where 0 is no effect and 100 is complete control)",[25],100
same,"Plant response rating, Rice (0 to 100 scale where 0 is no effect and 100 is complete control)",rice (Oryza sativa),0
same,"Plant response rating, Sedge, Umbrella (0 to 100 scale where 0 is no effect and 100 is complete control)",[26],90
same,"Plant response rating, Wheat",[27],0
Cc1ccc2cc3ccc(F)cc3c(-c3c(OCOC(=O)C(C)(C)C)c(C)nn(C)c3=O)c2c1 [Compound 21],"Plant response rating, Blackgrass",[1]; 31 g ai/ha,0
same,"Plant response rating, Blackgrass",[1]; 125 g ai/ha,40
same,"Plant response rating, Corn",corn (Zea mays) [2]; 31 g ai/ha,0
same,"Plant response rating, Corn",corn (Zea mays) [2]; 125 g ai/ha,0
same,"Plant response rating, Foxtail, Giant",[3]; 31 g ai/ha,80
same,"Plant response rating, Foxtail, Giant",[3]; 125 g ai/ha,100
same,"Plant response rating, Goosegrass",[4]; 31 g ai/ha,40
same,"Plant response rating, Goosegrass",[4]; 125 g ai/ha,60
same,"Plant response rating, Kochia",kochia (Bassia scoparia) [5]; 31 g ai/ha,100
same,"Plant response rating, Kochia",kochia (Bassia scoparia) [5]; 125 g ai/ha,100
same,"Plant response rating, Oat, Wild",[6]; 31 g ai/ha,0
same,"Plant response rating, Oat, Wild",[6]; 125 g ai/ha,40
same,"Plant response rating, Pigweed, Palmer",[7]; 31 g ai/ha,100
same,"Plant response rating, Pigweed, Palmer",[7]; 125 g ai/ha,100
same,"Plant response rating, Ragweed",[8]; 31 g ai/ha,50
same,"Plant response rating, Ragweed",[8]; 125 g ai/ha,90
same,"Plant response rating, Ryegrass, Italian",[9]; 31 g ai/ha,40
same,"Plant response rating, Ryegrass, Italian",[9]; 125 g ai/ha,90
same,"Plant response rating, Soybean",soybean (Glycine max) [10]; 31 g ai/ha,0
same,"Plant response rating, Soybean",soybean (Glycine max) [10]; 125 g ai/ha,0
same,"Plant response rating, Blackgrass",[11]; [28],20
same,"Plant response rating, Blackgrass",[11]; [29],20
same,"Plant response rating, Corn",corn (Zea mays) [12]; [28],30
same,"Plant response rating, Corn",corn (Zea mays) [12]; [29],40
same,"Plant response rating, Foxtail, Giant",[13]; [28],90
same,"Plant response rating, Foxtail, Giant",[13]; [29],100
same,"Plant response rating, Goosegrass",[14]; [28],20
same,"Plant response rating, Goosegrass",[14]; [29],30
same,"Plant response rating, Kochia",kochia (Bassia scoparia) [15]; [28],90
same,"Plant response rating, Kochia",kochia (Bassia scoparia) [15]; [29],100
same,"Plant response rating, Oat, Wild",[16]; [28],10
same,"Plant response rating, Oat, Wild",[16]; [29],40
same,"Plant response rating, Pigweed, Palmer",[17]; [28],100
same,"Plant response rating, Pigweed, Palmer",[17]; [29],100
same,"Plant response rating, Ragweed",[18]; [28],100
same,"Plant response rating, Ragweed",[18]; [29],100
same,"Plant response rating, Ryegrass, Italian",[19]; [28],80
same,"Plant response rating, Ryegrass, Italian",[19]; [29],100
same,"Plant response rating, Soybean",soybean (Glycine max) [20]; [28],100
same,"Plant response rating, Soybean",soybean (Glycine max) [20]; [29],100
same,"Plant response rating, Wheat",[21]; [28],0
same,"Plant response rating, Wheat",[21]; [29],0
same,"Plant response rating, Galium",[22]; [28],100
same,"Plant response rating, Galium",[22]; [29],100
same,"Plant response rating, Horseweed",[23]; [28],100
same,"Plant response rating, Horseweed",[23]; [29],100
same,"Plant response rating, Barnyardgrass (0 to 100 scale where 0 is no effect and 100 is complete control)",[24],98
same,"Plant response rating, Ducksalad (0 to 100 scale where 0 is no effect and 100 is complete control)",[25],100
same,"Plant response rating, Rice (0 to 100 scale where 0 is no effect and 100 is complete control)",rice (Oryza sativa),60
same,"Plant response rating, Sedge, Umbrella (0 to 100 scale where 0 is no effect and 100 is complete control)",[26],100
same,"Plant response rating, Wheat",[27],0

# Source: US12692238B2, “Substituted pyridazinone herbicides” (FMC CORPORATION, priority 2020, dated 2026)
